Columns and labels:
MYCN G4 DNA [1] = assay: DMS footprinting of 5′Cy5-labeled MYCN G4 DNA; format: binding, human
Experimental: DMS footprinting. Footprinting of 5′Cy5-labelled DNA was performed as described in the literature (Zhang et al., JACS 2014, 136:1381-1390; Li et al., PNAS 2015, 112:14581-14586). […] Then, DNA solutions were diluted to 50 nM in corresponding buffers (2 mL final volume in each tube) and compound stock solutions (in DMSO) were added resulting in solutions with designed concentrations (resulting in 5% DMSO). After incubation for 30 min, the folded DNA samples were treated with 0.5% DMS for 10 min at RT and the reaction was stopped by adding 200 μL stop buffer (2.5 M NH4OAc, 0.1 M β-mercaptoethanol, 1 mg/mL calf thymus DNA). After phenol/chloroform/isoamyl alcohol extraction and ethanol precipitation, the DNAs were dissolved in 50 μL of nuclease free water. An equal volume of 10% piperidine was added to each tube, and the mixed solutions were heated at 90° C. for 30 min, followed by quick chilling on ice. The DNAs were again subjected to phenol/chloroform/isoamyl alcohol extraction and ethanol precipitation. The precipitated DNAs were dissolved in 10 μL of nuclease free water, denatured at 95° C. for 5 min, and resolved on a 17% denaturing polyacrylamide gel. After gel running, Cy5-labeled DNA fragments were visualized on a Typhoon Imager (Amersham) and digitized using Image J software.
In this example, DMS-footprinting was conducted by using 5′-Cy5-labeled MYCN hairpin-G4 DNA. […]

MYCN G4 DNA [2] = assay: Fluorescence intensity assay (FIA) with 5′Cy5-labeled MYCN G4 DNA; format: binding, human; conditions: for Kd: 5′Cy5-labeled MYCN G4 titrated with compound; for positive binding in FIA (>10% quenching): single concentration 100 μM compound, 5′Cy5-MYCN G4
Experimental: (§1) Fluorescence intensity assay. In this disclosure, fluorescence intensity assay (FIA) was used for both validation of hit binding at a single dose and binding affinity determination. For validating hit compounds from SMM screening, 100 μM solution of each compound was prepared in triplicate in a 96 well-plate (Costar, black side clear bottom), resulting in 5% DMSO concentration. 5′Cy5-labeled MYCN G4 DNA was annealed as described above, then added into the well plate resulting in a final concentration of 100 nM. The plate was incubated shaking for 30 min, followed by centrifuging at 500 rpm for 2 minutes. The fluorescence intensity was then measured on a Synergy Mx microplate reader (BioTek) at Ex 649 nm/Em 670 nm. TMPyP4/DMSO were used as positive and negative controls, respectively. In certain examples, compounds were considered binders when a change of >10% change in fluorescence intensity was observed compared to that of negative control (DMSO solution). For binding affinity measurement, small molecule solutions were prepared as serial dilutions in DMSO. Then a final test plate was prepared by adding 5 μL small molecule solutions and 10 μL annealed DNA samples into 85 μL buffer solutions, resulting in the final small molecule concentrations from 0 to 250 μM (5% final DMSO concentration). The fluorescence intensities were normalized, and the binding affinity was calculated by fitting the curve using one-site total model in GraphPad Prism 8.3.1 software. The fluorescence titration using 3′-labeled oligonucleotides was also performed the same way.

dsDNA = assay: CD melting test of dsDNA; format: binding; conditions: CD melting of dsDNA with compound
[3] = target: mutated/truncated MYCN G4 DNA; assay: FIA titration with mutated long loop and truncated (no hairpin) MYCN G4 DNAs; format: binding, human
Experimental: as §1
To further understand the binding details between compound MY-1 and MYCN G4, a series of FIA studies were designed and performed. […] After incubating 100 μM MY-1 with labeled DNA samples, fluorescence intensities were measured and compared to DMSO controls. Fluorescence of the A11 2-AP DNA sample was quenched by almost 100%, while the quenching percentages were 80% and 70% for A18 and A24 2-AP DNAs, respectively (FIG. 24B, FIGS. 25A-25C). […]

[4] = target: MYCN G4 DNA (2-AP at A11); assay: 2-Aminopurine (2-AP) fluorescence titration, A11-labeled MYCN G4; format: binding, human; conditions: 2-AP at A11 of MYCN G4
Experimental: 2-Aminopurine (2-AP) fluorescence titration. Fluorescence titrations based on 2-aminopurine labeling were performed using the protocol reported previously. Briefly, MYCN G4 oligonucleotide with a 2-AP substitution at either A11 or A18 position was annealed by heating the sample to 95° C. for 5 min and cooling down to RT slowly. The oligonucleotide with folded structure was diluted to 10 μM in Tris buffer (10 mM Tris, pH7.0, 100 mM KCl, 0.005% Tween 20) and prepared in a black 96-well plate (Costar) in triplicate as designed. Small molecules were diluted in DMSO to obtain a series of solutions with concentrations ranging from 0.1 to 5 mM, and then diluted by 20 times added into the plate (5% DMSO final concentration). The final concentration of 2-AP DNA was 1 μM in the well plate. To obtain the background fluorescence, small molecule solutions without DNA were also prepared in the same plate. After incubation for 30 min at RT, the plate was briefly centrifuged and scanned in Synergy Mx microplate reader (BioTek) with Ex 310 nm/Em 365 nm. Fluorescence signals were calculated by averaging the intensities in triplicate wells after subtracting the references. Finally, the binding signals were normalized and the KD value was determined by fitting the curve using a nonlinear sigmoidal dose-response model with a variable slope in GraphPad Prism 8.3.1 software.

| SMILES | protection of guanines from DMS (MYCN G4 DNA [1]; 10 mM LiCl + 10 mM NaCl Tris buffer, 0-100 nM compound) | Kd (MYCN G4 DNA [2]) | positive binding in FIA (>10% quenching) (MYCN G4 DNA [2]) | effect on dsDNA melting (dsDNA) | binding affinity to mutated long loop and truncated MYCN G4 DNAs ([3]; 5′-Cy5 labeled constructs without hairpin) | Kd [4] | Kd ([3]; 5′-Cy5 labeled constructs without hairpin, read-out: binding affinity to mutated long loop and truncated MYCN G4 DNAs) | fold weaker binding than wild type MYCN G4 ([3]; mutated/truncated vs wild type) | protection of guanines from DMS (MYCN G4 DNA [1]; 5 mM KCl buffer, compound at concentrations according to KD) | A11 2AP KD [4] |
| --- | --- | --- | --- | --- | --- | --- | --- | --- | --- | --- |
| COc1ccc(-c2noc(-c3ccc(NCCCNc4c5ccc(Cl)cc5nc5ccc(OC)cc45)nn3)n2)cc1 [B33, N^1-(6-chloro-2-methoxyacridin-9-yl)-N^3-(6-(3-(4-methoxyphenyl)-1,2,4-oxadiazol-5-yl)pyridazin-3-yl)propane-1,3-diamine] | protection of G2-9, G10-12, and G17-21 | – | – | – | – | – | – | – | – | – |
| CCCN1CCN(c2nnc(-n3cccc3CNCCCN3CCCCCC3)s2)CC1 [Compound 1] | – | 20.8 ± 2.2 µM | hits | Neither of the compounds showed a measurable effect | comparable to wild type | – | – | – | – | – |
| COc1ccc(-c2noc(-c3ccc(NCCCN4CCCC4)nn3)n2)cc1 [MY-1, 6-(3-(4-methoxyphenyl)-1,2,4-oxadiazol-5-yl)-N-(3-(pyrrolidin-1-yl)propyl)pyridazin-3-amine] | – | 3.5 ± 1.6 µM | hits | Neither of the compounds showed a measurable effect | – | 3.2 ± 0.6 µM | > 100 µM | ~30 fold | G8, G9, G16, G17 were protected considerably, while G13-G15 were slightly protected | – |
| COc1ccc(-c2noc(-c3ccc(NCCCN4CCCCCC4)nn3)n2)cc1 [MY-8, N-(3-(azepan-1-yl)propyl)-6-(3-(4-methoxyphenyl)-1,2,4-oxadiazol-5-yl)pyridazin-3-amine] | – | – | – | – | – | 0.6 ± 0.2 µM | – | – | – | sub-micromolar binders |
